The test system of one test is rat aortic rings. In words: Acetylcholine-induced endothelium dependent relaxation of aortic rings in organ chamber. In kind it is in vivo. The settings on record: GK diabetic rats. The method, then:
In the experiments, with regard to the determination of endothelium dependent relaxation (EDR) in the aorta, EDR in response to various concentrations of acetylcholine (Ach) (10^−9 to 10^−6 mol/l) was assessed in norepinephrine (10^−7 mol/l) preconstructed rat aortic rings using an organ chamber bath. The effects of the NAD(P)H oxidase inhibitor apocynin (3×10^−4 mol/l) and the O2^− scavenger Tiron (10 mmol/l) on Ach-induced responses of diabetic arteries were also considered.

In another test the test system is aortic vessels. Kind of test: Dihydroethidium / ethidium bromide fluorescence of aortic sections. In kind it is in vivo, rat. The settings on record: LA-treated diabetic rats. The method, then: Dihydroethidium (DHE), an oxidative fluorescent dye, was used to localize superoxide production in situ. DHE is oxidized on reaction with superoxide to ethidium bromide, which binds to DNA in the nucleus and fluoresces. Arteries were embedded in OCT medium, frozen and cryosectioned. Vascular sections were incubated with DHE at a concentration (10^−6 mol/l) at 37° C. for 30 minutes. DHE images from serial sections were obtained using a Zeiss Axioplan 2000 fluorescence microscope.

In another test the test system is nox-1. Kind of test: Aortic mRNA expression by real-time PCR, nox-1. In kind it is in vivo, rat. The settings on record: aorta of LA-treated GK rats. The method, then:
(§1) Further, with regard to quantitative real-time polymerase chain reactions (PCR) in the study, total RNA from the arterial samples was isolated using TRIZOL® reagent, and RNA integrity was verified by agarose gel electrophoresis and quantified by spectrophotometry. Reverse transcription reaction of total RNA (5 μg) was performed using a superscript 111 first-strand synthesis system. Quantitative real-time PCR was performed using fast SYBR Green QPCR. […]
(§2) The housekeeping gene beta-actin was used for internal normalization. Fidelity of the PCR reaction was determined by melting temperature analysis. PCR efficiency for each primer pair was determined by quantitating amplification with increasing concentration of template cDNA. […] RNA expression of target genes was calculated based on the real-time PCR efficiency E and the threshold crossing point (CP) and is expressed relative to the reference gene beta-actin.
For orientation: Quantitative PCR measures a nucleic acid by following its amplification.

For the next test, the system named is caspase 3/7. Kind of test: Caspase 3/7 activity in aorta (APO-ONE assay). To be noted: chronic LA treatment, GK rats. In kind it is in vivo, rat. How it is done:
(§3) For detection of caspase 3-like activity, protein was isolated and caspase activity was detected in resulting supernatant using an APO-ONE homogenous caspase 3/7 assay (Promega). With regard to subcellular fractionation and western blotting, aortic tissue nuclear extracts were prepared and protein (40 μg) was loaded in each well of […] polyacrylamide gel. Separated polypeptide was transferred to nitrocellulose membrane IBio-Rad) and probed with anti NFκB at a 1:2,000 […]. Chemiluminescent detection was performed by an ECL Western Blotting Detection Kit®.

In test [1] the test system is TNF-α. Kind of test: Plasma TNF-α ELISA. The format is in vivo, rat. The settings on record: GK rats, LA chronic therapy. The method, then:
Plasma TNF-α levels from various experimental groups were determined using a rat TNF-α ELISA kit, and tissue protein content was determined using bovine serum albumin as a standard.
In general terms: An ELISA detects its analyte on a solid surface through an enzyme-linked reagent.

For test [2], the system named is TNF-α. In words: Aortic mRNA expression by QRT-PCR, TNF-α. In kind it is in vivo, rat. The settings on record: GK rats, LA chronic therapy. How it is done:
as §1, §2

Test [3] has as its system NF-κB. Kind of test: Aortic nuclear NF-κB, western blotting. In kind it is in vivo, rat. To be noted: GK rats, LA chronic therapy. How it is done: as §3
It is well known that TNF-α enhances the activity of NF-κB, most probably via H202 mediated mechanisms. Using data showing that both TNF-α and H202 levels were elevated in diabetic vascular tissues, NF-κB activity was assessed using a western blotting-based technique with an antibody (anti P65) that specifically recognizes the active form of this transcription factor. […] Nuclear localization of NF-κB in aortic tissues was determined using differential centrifugation and western blotting-based techniques.
Background: Immunoblotting shows a protein as a band on a membrane.

The test system of the next test is IL-6. In words: Aortic mRNA expression by QRT-PCR, IL-6. In kind it is in vivo, rat. To be noted: GK rats, LA therapy. How it is done: An expression of a number of inflammatory markers, including IL-6 and ICAM-1, were measured in control, diabetic and LA-treated diabetic vessels. The results confirmed marked elevation in the vascular expression of both […] and ICAM-1 during diabetes, as shown in FIGS. 11A and 11B. […] Aortic expression of IL-6 is shown in FIG. 11A and aortic expression of intracellular adhesion molecule (ICAM-1) is shown in FIG. 11B. Both were determined using QRT-PCR based techniques.

The subject of test [4] is NF-κB. Kind of test: NF-κB expression by western blotting, HEK-293. In kind it is cell-based. To be noted: HEK-293 (parental cells) exposed to α-lipoic acid. The source says: Alpha-lipoic acid increased HEK-499 cells, which were engineered to be resistant to chemotherapies and radiotherapies by depleting Raf Kinase inhibitory protein resistance to lethal doses of cisplatin, a chemical used in cancer therapy.

With `O=C(O)CCCCC1CCSS1` (stereo not drawn) [LA, alpha-lipoic acid], the “decline in acetylcholine (Ach)-induced relaxation of rat aorta” value in the test on rat aortic rings (LA 50 mg/kg i.p. daily for four weeks) is “ameliorated”. Also, in the test on rat aortic rings (two weeks after discontinuation of LA), the “beneficial effect on Ach-induced relaxation after discontinuation” value is recorded as “not evident”. In the test with aortic vessels, the “nuclear EB fluorescence in aortic vessels” value is recorded as “significantly reduced”. Besides, the “rate of gene expression of nox-1 subunit” value in the test on nox-1 is “tended to reduce”. In the test on caspase 3/7, the “reduction of caspase 3/7 in diabetic arteries” value amounted to 48%. Besides, in the test on TNF-α [1], the “diabetes related up-regulation of TNF-α protein (plasma)” value is on record as “Reversal”. For the same compound, the “diabetes related up-regulation of TNF-α mRNA (aorta)” value with TNF-α [2] was “Reversal”. For the same compound, in the test with NF-κB [3], the “high NF-κB level in vascular diabetic nuclei” value was “reversed”. In addition, the “diabetic vascular proinflammatory phenotype, aortic expression of IL-6” value in the test on IL-6 is “partially reversed”. For the same compound, the NF-κB expression entry in the test on NF-κB [4] is listed as “significant increase”.

Values taken from patent US8735443B2, “Method of treating diabetes-related vascular complications” (Kuwait University, priority 2008, dated 2014).
